US20050272784A1 (priority 2004, published 2005)

Tested on: type III protein secretion system of P. aeruginosa PA103 (ExoU secretion)
Experiment: Tertiary assay: Type III-dependent secretion of ExoU by P. aeruginosa PA103
Type: cell-based
Settings: Pseudomonas aeruginosa; for IC50: ExoU secreted into extracellular medium
Description: Tertiary assay: inhibition of Type III protein secretion of effectors from a Pseudomonas aeruginosa system. Type III protein secretion is used by P. aeruginosa to secrete several essential virulence determinants. One effector of the type III protein secretion system of P. aeruginosa PA103 is the virulence determinants ExoU.
The amount of Type III-dependent secretion of ExoU by P. aeruginosa PA103 can be determined in a cell-based assay by quantification of the 73.9 kDa ExoU protein scereted into the extracellular medium. Such quantitation can be achieved by growing strain PA103 in a deferrated medium in the presence of nitrilotriacetic acid (an inducer of Type III protein secretion in P. aeruginosa) and either in the presence or absence of putative inhibitors. After a prolonged growth period, the cells are sedimented and the supernatants concentrated by ammonium sulfate precipitation. The proteins in the resuspended pellets are separated by electrophoresis on SDS-polyacrylamide gels. After staining gels with Colloidal Blue™, the 73.9 kDa ExoU band is quantitated by scanning through an imager. The effects of inhibitors on the intensity of the ExoU band may be measured relative to that of untreated controls.

Question: With `O=C(N[C@@H](CSCc1ccccc1)C(=O)O)c1nc(-c2ccc(C(F)(F)F)cc2)oc1-c1ccc(-c2ccc(F)cc2)nc1` [Compound 34, (R)-3-Benzylsulfanyl-2-{[5-[6-(4-fluorophenyl)pyridin-3-yl]-2-(4-trifluoromethylphenyl)oxazole-4-carbonyl]amino}propionic acid] as the compound, how does the IC50 read?
Answer: The IC50 was 47.4 µM.

Question: How did the IC50 turn out when `O=C(NC(Cc1ccc(Cl)cc1)C(=O)O)c1nc(-c2ccc(-c3ccccc3)cc2)oc1-c1cnc(Cl)c(Cl)c1` (centres unmarked) [Compound 45, 2-{[2-Biphenyl-4-yl-5-(5,6-dichloropyridin-3-yl)oxazole-4-carbonyl]amino}-3-(4-chlorophenyl)propionic acid] was run?
Answer: Its IC50 is 51.8 µM.

Question: Which IC50 does the source give for `Cn1cc(-c2oc(-c3ccc(C(F)(F)F)cc3)nc2C(=O)NC(Cc2ccc(Cl)cc2)C(=O)O)c2ccccc21` (centres unmarked) [Compound 48, 3-(4-Chlorophenyl)-2-{[5-(1-methyl-1H-indol-3-yl)-2-(4-trifluoromethylphenyl)oxazole-4-carbonyl]amino}propionic acid] here?
Answer: Its IC50 is 73.5 µM.

Question: How did the IC50 turn out when `O=C(N[C@@H](COCc1ccccc1)C(=O)O)c1nc(-c2ccc(Oc3ccccc3)cc2)oc1-c1ccc(Cl)nc1Cl` [Compound 37, (S)-3-Benzyloxy-2-{[5-(2,6-dichloropyridin-3-yl)-2-(4-phenoxyphenyl)oxazole-4-carbonyl]amino}propionic acid] was run?
Answer: The IC50 was 91.7 µM.

Question: For `O=C(N[C@@H](CSCc1ccccc1)C(=O)O)c1nc(-c2ccc(Oc3ccccc3)cc2)oc1-c1ccc(Cl)c(Cl)c1` [Compound 8, (R)-3-Benzylsulfanyl-2-{[5-(3,4-dichlorophenyl)-2-(4-phenoxyphenyl)oxazole-4-carbonyl]amino}propionic acid], which IC50 is on record?
Answer: Its IC50 is 45.4 µM.

Question: `O=C(N[C@H](COCc1ccccc1)C(=O)O)c1nc(-c2ccc(-c3ccccc3)cc2)oc1-c1cccc(C(F)(F)F)c1` [Compound 71, (R)-3-Benzyloxy-2-{[2-biphenyl-4-yl-5-(3-trifluoromethylphenyl)oxazole-4-carbonyl]amino}propionic acid] was tested. Which IC50 did it give?
Answer: The IC50 was 45.3 µM.

Question: Which IC50 does the source give for `O=C(N[C@@H](COCc1ccccc1)C(=O)O)c1nc(-c2ccc(C(F)(F)F)cc2)oc1-c1cc2ccccc2s1` [Compound 22, (S)-2-{[5-Benzo[b]thien-2-yl-2-(4-trifluoromethylphenyl)oxazole-4-carbonyl]amino}-3-benzyloxypropionic acid] here?
Answer: The IC50 was 82.4 µM.

Question: How did the IC50 turn out when `O=C(N[C@@H](COCc1ccccc1)C(=O)O)c1nc(-c2ccc(C(F)(F)F)cc2)oc1-c1ccc(Cl)nc1` [Compound 29, (S)-3-Benzyloxy-2-{[5-(6-chloropyridin-3-yl)-2-(4-trifluoromethylphenyl)oxazole-4-carbonyl]amino}propionic acid] was run?
Answer: Its IC50 is 73.4 µM.

Question: How did the IC50 turn out when `O=C(N[C@@H](COCc1ccccc1)C(=O)O)c1nc(-c2ccc(-c3ccccc3)cc2)oc1-c1cccc(C(F)(F)F)c1` [Compound 62, (S)-3-Benzyloxy-2-{[2-biphenyl-4-yl-5-(3-trifluoromethylphenyl)oxazole-4-carbonyl]amino}propionic acid] was run?
Answer: The IC50 was 50.5 µM.

Question: How did the IC50 turn out when `O=C(N[C@@H](CSCc1ccccc1)C(=O)O)c1nc(-c2cccc3ccccc23)oc1-c1ccc(C(F)(F)F)nc1` [Compound 65, (R)-3-Benzylsulfanyl-2-{[2-naphthalen-1-yl-5-(6-trifluoromethylpyridin-3-yl)oxazole-4-carbonyl]amino}propionic acid] was run?
Answer: The IC50 was 53.1 µM.

Question: `O=C(NC(Cc1ccc(Cl)cc1)C(=O)O)c1[nH]c(-c2ccc(-c3ccccc3)cc2)nc1-c1cccc(C(F)(F)F)c1` (centres unmarked) [Compound 3, 2-{[2-Biphenyl-4-yl-5-(3-trifluoromethylphenyl)-3H-imidazole-4-carbonyl]amino}-3-(4-chlorophenyl)propionic acid] was tested. Which IC50 did it give?
Answer: Its IC50 is 20.6 µM.

Question: Which IC50 does the source give for `O=C(N[C@@H](COCc1ccccc1)C(=O)O)c1nc(-c2ccc(C(F)(F)F)cc2)oc1-c1cc2ccccc2o1` [Compound 35, (S)-2-{[5-Benzofuran-2-yl-2-(4-trifluoromethylphenyl)oxazole-4-carbonyl]amino}-3-benzyloxypropionic acid] here?
Answer: The IC50 was 79.8 µM.

Question: Which IC50 does the source give for `O=C(N[C@@H](CSCc1ccccc1)C(=O)O)c1nc(-c2ccc(C(F)(F)F)cc2)oc1C1CCN(c2nccc(C(F)(F)F)n2)CC1` [Compound 57, (R)-3-Benzylsulfanyl-2-({2-(4-trifluoromethylphenyl)-5-[1-(4-trifluoromethylpyrimidin-2-yl)piperidin-4-yl]oxazole-4-carbonyl}amino)propionic acid] here?
Answer: The IC50 was 50 µM.

Question: With `O=C(N[C@@H](CSCc1ccccc1)C(=O)O)c1nc(-c2ccc(C(F)(F)F)cc2)sc1-c1ccc(OCc2ccccc2)cc1` [Compound 7, (R)-2-{[5-(4-Benzyloxyphenyl)-2-(4-trifluoromethylphenyl)thiazole-4-carbonyl]amino}-3-benzylsulfanylpropionic acid] as the compound, how does the IC50 read?
Answer: The IC50 was 54.4 µM.

Question: For `CN(C(=O)c1nc(-c2ccc(C(F)(F)F)cc2)oc1-c1ccc(-c2ccccc2)cc1)[C@@H](CSCc1ccccc1)C(=O)O` [Compound 16], which IC50 is on record?
Answer: Its IC50 is 80.9 µM.

Question: For `O=C(N[C@@H](COCc1ccccc1)C(=O)O)c1nc(-c2ccc(-c3ccccc3)cc2)nn1-c1ccc(Cl)c(Cl)c1` [Compound 68, (S)-3-Benzyloxy-2-{[5-biphenyl-4-yl-2-(3,4-dichlorophenyl)-2H-[1,2,4]triazole-3-carbonyl]amino}propionic acid], which IC50 is on record?
Answer: The IC50 was 39.2 µM.

Question: How did the IC50 turn out when `O=C(N[C@@H](Cc1ccc(Cl)cc1)C(=O)O)c1nc(-c2ccc(C(F)(F)F)cc2)oc1-c1ccc(-c2ccccc2)cc1` [Compound 73, (S)-2-{[5-Biphenyl-4-yl-2-(4-trifluoromethylphenyl)oxazole-4-carbonyl]amino}-3-(4-chlorophenyl)propionic acid] was run?
Answer: Its IC50 is 56.1 µM.

Question: With `Cc1nc(-c2ccc(-c3oc(-c4ccc(C(F)(F)F)cc4)nc3C(=O)N[C@@H](COCc3ccccc3)C(=O)O)cc2)no1` [Compound 66, (S)-3-Benzyloxy-2-{[5-[4-(5-methyl[1,2,4]oxadiazol-3-yl)phenyl]-2-(4-trifluoromethylphenyl)oxazole-4-carbonyl]amino}propionic acid] as the compound, how does the IC50 read?
Answer: The IC50 was 12.5 µM.

Question: `O=C(N[C@@H](CSCc1ccccc1)C(=O)O)c1nc(-c2ccc(-c3ccccc3)cc2)oc1-c1cnc(Cl)c(Cl)c1` [Compound 43, (R)-3-Benzylsulfanyl-2-{[2-biphenyl-4-yl-5-(5,6-dichloropyridin-3-yl)oxazole-4-carbonyl]amino}propionic acid] was tested. Which IC50 did it give?
Answer: Its IC50 is 45.7 µM.

Question: `O=C(N[C@@H](COCc1ccccc1)C(=O)O)c1nc(-c2ccc(C(F)(F)F)cc2)oc1-c1cnc2ccccc2n1` [Compound 53, (S)-3-Benzyloxy-2-{[5-quinoxalin-2-yl-2-(4-trifluoromethylphenyl)oxazole-4-carbonyl]amino}propionic acid] was tested. Which IC50 did it give?
Answer: The IC50 was 64.6 µM.

Question: Which IC50 does the source give for `O=C(N[C@@H](CSCc1ccccc1)C(=O)O)c1nc(-c2ccc(C(F)(F)F)cc2)oc1C#Cc1ccccc1` [Compound 9, (R)-3-Benzylsulfanyl-2-{[5-phenylethynyl-2-(4-trifluoromethylphenyl)oxazole-4-carbonyl]amino}propionic acid] here?
Answer: Its IC50 is 26.7 µM.

Question: How did the IC50 turn out when `O=C(N[C@@H](COCc1ccccc1)C(=O)O)c1nc(-c2ccc(Oc3ccccc3)cc2)oc1-c1ccc(Cl)c(Cl)c1` [Compound 13, (S)-3-Benzyloxy-2-{[5-(3,4-dichlorophenyl)-2-(4-phenoxyphenyl)-oxazole-4-carbonyl]amino}propionic acid] was run?
Answer: Its IC50 is 19.3 µM.

Question: With `O=C(NC(Cc1ccc(Cl)cc1)C(=O)O)c1nc(-c2ccc(-c3ccccc3)cc2)oc1-c1cccc(C(F)(F)F)c1` (centres unmarked) [Compound 60, 2-{[2-Biphenyl-4-yl-5-(3-trifluoromethylphenyl)oxazole-4-carbonyl]amino}-3-(4-chlorophenyl)propionic acid] as the compound, how does the inhibition at 100 µM (ExoU Conc 100 μM, read-out: ExoU % Inh) read?
Answer: Its inhibition at 100 µM is 90.2%.

Question: Which IC50 does the source give for `O=C(N[C@@H](CSCc1ccccc1)C(=O)O)c1nc(-c2ccc(C(F)(F)F)cc2)oc1-c1cc2ccccc2s1` [Compound 23, (R)-2-{[5-Benzo[b]thien-2-yl-2-(4-trifluoromethylphenyl)oxazole-4-carbonyl]amino}-3-benzylsulfanylpropionic acid] here?
Answer: The IC50 was 40.7 µM.

Question: How did the IC50 turn out when `O=C(NC(Cc1ccc(Cl)cc1)C(=O)O)c1nc(-c2ccc(C(F)(F)F)cc2)oc1-c1cc2ccccc2o1` (centres unmarked) [Compound 42, 2-{[5-Benzofuran-2-yl-2-(4-trifluoromethylphenyl)oxazole-4-carbonyl]amino}-3-(4-chlorophenyl)propionic acid] was run?
Answer: Its IC50 is 27.1 µM.

Question: With `O=C(N[C@@H](COCc1ccccc1)C(=O)O)c1nc(-c2ccc(C(F)(F)F)cc2)oc1-c1ccc(-c2ccccc2)cc1` [Compound 63, (S)-3-Benzyloxy-2-{[5-biphenyl-4-yl-2-(4-trifluoromethylphenyl)oxazole-4-carbonyl]amino}propionic acid] as the compound, how does the IC50 read?
Answer: The IC50 was 37.3 µM.

Question: For `O=C(N[C@@H](COCc1ccccc1)C(=O)O)c1nc(-c2ccc(C(F)(F)F)cc2)oc1-c1ccc2ccccc2n1` [Compound 27, (S)-3-Benzyloxy-2-{[5-quinolin-2-yl-2-(4-trifluoromethylphenyl)oxazole-4-carbonyl]amino}propionic acid], which IC50 is on record?
Answer: Its IC50 is 93.1 µM.

Question: For `O=C(NC(Cc1ccc(Cl)cc1)C(=O)O)c1nc(-c2ccc(-c3ccccc3)cc2)oc1-c1cccc(C(F)(F)F)c1` (centres unmarked) [Compound 15, 2-{[2-Biphenyl-4-yl-5-(3-trifluoromethylphenyl)oxazole-4-carbonyl]amino}-3-(4-chlorophenyl)propionic acid], which IC50 is on record?
Answer: Its IC50 is 79.9 µM.

Question: Which IC50 does the source give for `O=C(NC(Cc1ccc(Cl)cc1)C(=O)O)c1nc(-c2ccc(-c3ccccc3)cc2)nn1-c1ccc(Cl)c(Cl)c1` (centres unmarked) [Compound 69, 2-{[5-Biphenyl-4-yl-2-(3,4-dichlorophenyl)-2H-[1,2,4]triazole-3-carbonyl]amino}-3-(4-chlorophenyl)propionic acid] here?
Answer: The IC50 was 32.4 µM.
